Experimental data reported in patent publication US20240307409A1, “ARGININE METHYLTRANSFERASE INHIBITOR AND USE THEREOF” (Cytosinlab Therapeutics Co., Ltd., priority 2021, published 2024).

Tests used:
MMA in RKO cells = assay: RKO In Cell Western assay (MMA primary antibody); type: cell-based; conditions: Homo sapiens, 72 hours, read-out: RKO ICW_EC30
Experimental: RKO was seeded at a concentration of 20,000 cells/ml into a polylysine-coated 96-well plate (Corning #3599), with 2,000 cells per well and 100 μL of culture mediumper well. 500 nL of compound was added to the 96-well plate. 3) The 96-well plate was incubated in a 37° C., 5% CO2 incubator for 72 hours. After three days, the 96-well plate was taken from the incubator, 100 μL of 8% paraformaldehyde solution was added to each well, and the plate was placed at room temperature for 15 min. After 15 min, the liquid in the plate was shaken out and the plate was washed three times with phosphate buffer (1*PBS). The liquid in the plate was shaken out and 200 μL of membrane-breaking buffer (0.1% (v/v) Tween-20 in PBS) was added and the plate was incubated on a shaker for 30 min. After half an hour, the liquid in the plate was shaken out, and blocking buffer was added and the plate was incubated for two hours at room temperature with shaking. After that, the liquid in the plate was shaken off, and the blocking solution containing primary antibody (MMA primary antibody, CST #8711S, 1:1000 v/v) was added to the 96-well plate and the plate was incubated at 4° C. overnight with shaking. The next day, the plate was washed three times with washing solution (0.05% (v/v) Tween-20 in PBS), and a blocking solution containing secondary antibody (goat anti-rabbit IgG (H+L) Invitrogen #31460, 1:10,000 v/v) was added and the plate was incubated for two hours at room temperature. Afterwards, the 96-well plate was washed four times with washing solution. The TMB mixture was added to the 96-well plate and then the plate was incubated for 15 minutes at room temperature with shaking. After that, the reaction terminating solution was added, and the value was read at OD450 nm using an microplate reader. The plate was washed three times with washing solution, and 50 μL of janusgreen staining solution was added, and the plate was incubated for 15 minutes at room temperature with shaking. The reaction was washed ten times with water until no color residue was left. 200 μL of 0.5 M hydrochloric acid solution was added to each well and the plate was incubated for 10 min at room temperature. The value was read at OD595 nm using Flexstation.
Firstly, the ratio OD450/OD595 was calculated for each well
Each plate had six DMSO negative control groups (ZPE) and six 10 μM positive control groups (HPE), and the average of the control group ratios was used to determine the percentage of activation for each test well. The compounds to be tested were triple diluted with DMSO for a total of 8 concentration points with a starting concentration of 5 μM. The equation for calculating the activation percentage of each test well was: […]

PRMT1 = PRMT1 (Homo sapiens, UniProt Q99873); assay: PRMT1 enzyme activity test; type: biochemical; conditions: 0.5 nM PRMT1, 3H-SAM, peptide
In short: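 Radiometric methylation assay: 0.5 nM PRMT1 preincubated 15 min at room temperature with compound (10-point 3-fold series, 1% DMSO) in pH 8.0 Tris buffer with Tween-20 and DTT. 0.25 uM ³H-SAM and 0.1 uM biotinylated peptide then reacted 120 min. Product captured on streptavidin FlashPlate and counted; IC50 from four-parameter fit of % inhibition.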

Toledo cells = assay: Toledo cell proliferation inhibition assay; type: cell-based; conditions: Homo sapiens, Toledo, 144 h; six-day assay, CellTiter-Glo
In short: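 Toledo cells seeded at 2000 cells/well in RPMI 1640 + 10% FBS and incubated with compound for six days at 37° C, 5% CO2. Viability was then read by CellTiter-Glo luminescence after 30 min orbital mixing.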

MV-4-11 cells = assay: MV-4-11 cell proliferation inhibition assay; type: cell-based; conditions: Homo sapiens, MV4-11, 144 h; six-day assay, CellTiter-Glo
Experimental: • A. Purpose: to determine the effects of compounds on Toledo cells through a six-day cell proliferation assay. • B. Reagents and materials: • 1. Cell culture medium: RPMI 1640+10% FBS • 2. 384-well cell culture plate (Corning, item #3764) • 3. 0.4% Taipan Blue Staining Solution (Thermo Fisher, item #T10282) • 4. cell counting plate (Thermo Fisher, item #C10228) • 5. 50 ml reagent reservoir (Corning, item #4870) • 6. 50 ml conical sterile polypropylene centrifuge tube (Thermo Fisher, item #339653) • 7. Automatic cell counter (Thermo Fisher, item #AMQAX1000) • 8. CellTiter-Glo Luminescent Cell Viability Detection Reagent (Promega, item #G7572) • 9. SpectraMax i3x Multi-Mode Enzyme Labeling Instrument (Megaman Molecular Instruments, item #5024062) • C. Experimental method • 1. Resuspending the cells with a pipette. • 2. 0.4% Taipan blue staining solution and Toledo cells were mixed in equal proportion, and the cells were counted using an automatic cell counter. • 3. Toledo cells were diluted to a final concentration of 2000 cells per well and transferred to a 50 ml reagent reservoir. • 4. Diluted Toledo cells were added to a 384-well cell culture plate, 40 ul per well. • 5. The cells were shortly centrifuged and settled. • 6. The cells were incubated in a 37° C., 5% CO2 cell culture incubator. • 7. The substrate in the CellTiter-Glo Luminescent Cell Viability Detection Reagent was mixed with the solution. • 8. After six days, the 384-well cell culture plate was taken from the incubator and 20 ul of configured CellTiter-Glo reagent was added to each well. • 9. 384-well cell culture platewasmixed in an orbital shaker for 30 minutes. • 10. Signal of luminescence was detected with a SpectraMax i3x multi-mode enzyme labeling instrument.
Similar to the Toledo cell proliferation inhibition assay method, the difference was that MV-4-11 cells were used and the cell culture medium was IMDM+10% FBS; in step 3 of the assay method 250 cells per well was used instead;

Chain of PRMT1 (Q99873 whole entry): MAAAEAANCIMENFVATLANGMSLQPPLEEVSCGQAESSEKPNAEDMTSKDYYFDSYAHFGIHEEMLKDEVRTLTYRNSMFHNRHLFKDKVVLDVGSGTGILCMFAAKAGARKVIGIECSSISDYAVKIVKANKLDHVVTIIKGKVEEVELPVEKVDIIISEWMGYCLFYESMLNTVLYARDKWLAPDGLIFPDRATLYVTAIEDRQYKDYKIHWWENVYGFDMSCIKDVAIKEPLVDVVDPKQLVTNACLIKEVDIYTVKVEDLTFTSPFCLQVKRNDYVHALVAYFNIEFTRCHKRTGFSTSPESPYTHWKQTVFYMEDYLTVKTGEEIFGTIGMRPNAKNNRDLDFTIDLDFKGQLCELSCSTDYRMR

Compound: CNCCN(C)Cc1ccc(N)nc1C1CCN(c2cccc(C)c2)CC1 [P226, N^1-((6-amino-2-(1-(m-tolyl)piperidin-4-yl)pyridin-3-yl)methyl)-N^1,N^2-dimethylethane-1,2-diamine]
- EC30 (MMA in RKO cells): < 250 nM
- IC50 (PRMT1): < 50 nM
- IC50 (Toledo cells): < 1000 nM

Compound: CNCCN(C)Cc1ncccc1C1CCN(c2nc(N(C)C)nc3ccccc23)CC1 [P240]
- EC30 (MMA in RKO cells): 250 to 2500 nM
- IC50 (PRMT1): < 50 nM
- IC50 (Toledo cells): < 1000 nM

Compound: CNCCN(C)Cc1ncccc1N1CCc2ccc(N)cc2CC1 [P243]
- EC30 (MMA in RKO cells): 250 to 2500 nM
- IC50 (PRMT1): < 50 nM
- IC50 (Toledo cells): < 1000 nM

Compound: CNCCN(C)Cc1ncccc1C1CCN(c2ncc3ccccc3n2)CC1 [P250]
- EC30 (MMA in RKO cells): 250 to 2500 nM
- IC50 (PRMT1): < 50 nM
- IC50 (Toledo cells): < 1000 nM

Compound: CNCCN(C)Cc1ncccc1C1CCN(c2ccnc(N3CCCC3)n2)CC1 [P251]
- EC30 (MMA in RKO cells): 250 to 2500 nM
- IC50 (PRMT1): < 50 nM
- IC50 (Toledo cells): < 1000 nM

Compound: CNCCN(C)Cc1ncccc1C1CCN(c2nccc(N3CCCC3)n2)CC1 [P252]
- EC30 (MMA in RKO cells): 250 to 2500 nM
- IC50 (PRMT1): < 50 nM
- IC50 (Toledo cells): < 1000 nM

Compound: CCOCC1(COCC)CCC(c2cc3c(cc2CN(C)CCNC)CNC3=O)CC1 [P258]
- EC30 (MMA in RKO cells): < 250 nM
- IC50 (PRMT1): < 50 nM
- IC50 (Toledo cells): < 1000 nM

Compound: CNCCN(C)Cc1ccc2[nH]c(=O)[nH]c2c1C1CCN(c2cccc(C)c2)CC1 [P261]
- IC50 (MV-4-11 cells): < 1000 nM

Compound: CNCCN(C)Cc1ncccc1N1CCc2nc(SC)nc(C)c2CC1 [P323]
- EC30 (MMA in RKO cells): > 2500 nM
- IC50 (PRMT1): < 50 nM
- IC50 (Toledo cells): < 1000 nM

Compound: CNCCN(C)Cc1cc(F)ccc1C1CCN(S(=O)(=O)c2ccccc2[N+](=O)[O-])CC1 [P325]
- EC30 (MMA in RKO cells): 250 to 2500 nM
- IC50 (PRMT1): < 50 nM
- IC50 (Toledo cells): < 1000 nM

Compound: CNCCN(C)Cc1ccc(NCCNCC(=O)NC)nc1C1CCN(c2cccc(C)c2)CC1 [P400]
- IC50 (MV-4-11 cells): < 1000 nM

Compound: CNCCN(C)Cc1ccc2nn(C)cc2c1C1CCN(c2cccc(C)c2)CC1 [P401]
- IC50 (PRMT1): < 50 nM
- IC50 (MV-4-11 cells): < 1000 nM

Compound: CNCCN(C)Cc1ccc2c(c1C1CCN(c3cccc(C)c3)CC1)C(C)(C)C(=O)N2 [P402]
- IC50 (PRMT1): 50 to 500 nM
- IC50 (MV-4-11 cells): 1000 to 5000 nM

Compound: CNCCN(C)Cc1ccc2c(c1C1CCN(c3cccc(C)c3)CC1)C(=O)C(=O)N2Cc1ccc(OC)cc1 [P404]
- IC50 (PRMT1): 50 to 500 nM
- IC50 (MV-4-11 cells): < 1000 nM

Compound: CNCCN(C)Cc1ccc2c(c1C1CCN(c3cccc(C)c3)CC1)C(=O)C(=O)N2 [P405]
- IC50 (PRMT1): < 50 nM
- IC50 (MV-4-11 cells): < 1000 nM

Compound: CNCCN(C)Cc1ccc2[nH]c(N3CCOCC3)nc2c1C1CCN(c2cccc(C)c2)CC1 [P406, N,N′-dimethyl-N′-[[2-morpholin-4-[1-(m-tolyl)-4-piperidinyl]-1H-benzo[d]imidazol-5-yl]methyl]ethane-1,2-diamine]
- IC50 (PRMT1): < 50 nM
- IC50 (MV-4-11 cells): < 1000 nM

Compound: CNCCN(C)Cc1ccc2[nH]c(C(=O)c3ccccc3)nc2c1C1CCN(c2cccc(C)c2)CC1 [P407]
- IC50 (PRMT1): 50 to 500 nM
- IC50 (MV-4-11 cells): < 1000 nM

Compound: CNCCN(C)Cc1cc2nc(N)[nH]c2cc1C1CCN(c2cccc(C)c2)CC1 [P408]
- IC50 (MV-4-11 cells): ≥ 5000 nM

Compound: CNCCN(C)Cc1cnc2[nH]ncc2c1C1CCN(c2cccc(C)c2)CC1 [P409]
- IC50 (PRMT1): 50 to 500 nM
- IC50 (MV-4-11 cells): < 1000 nM

Compound: CNCCN(C)Cc1ccc2c(c1C1CCN(c3cccc(C)c3)CC1)CC(C)(C)C(=O)N2 [P410]
- IC50 (MV-4-11 cells): < 1000 nM

Compound: CNCCN(C)Cc1ncc2[nH]c(=O)[nH]c2c1C1CCN(c2cccc(C)c2)CC1 [P413]
- IC50 (MV-4-11 cells): < 1000 nM

Compound: CNCCN(C)Cc1ncc2[nH]c(N3CCOCC3)nc2c1C1CCN(c2cccc(C)c2)CC1 [P414]
- IC50 (MV-4-11 cells): < 1000 nM

Compound: CNCCN(C)Cc1ncc2[nH]c(C)nc2c1C1CCN(c2cccc(C)c2)CC1 [P415]
- IC50 (MV-4-11 cells): < 1000 nM

Compound: CNCCN(C)Cc1ccc2[nH]c(C(F)(F)F)nc2c1C1CCN(c2cccc(C)c2)CC1 [P416]
- IC50 (MV-4-11 cells): < 1000 nM

Compound: CNCCN(C)Cc1ccc2[nH]c(-c3cnc(C)nc3)nc2c1C1CCN(c2cccc(C)c2)CC1 [P418]
- IC50 (MV-4-11 cells): < 1000 nM

Compound: CCOCC1(COCC)CCC(c2c(CN(C)CCNC)ccc3[nH]c(N4CCOCC4)nc23)CC1 [P419]
- IC50 (MV-4-11 cells): < 1000 nM

Compound: CNCCN(C)Cc1ccc2[nH]c(N3CCOCC3)nc2c1C1CCc2cc(F)c(F)cc2CC1 [P420]
- IC50 (MV-4-11 cells): < 1000 nM

Compound: CNCCN(C)Cc1ccc2[nH]c(C3=CCOCC3)nc2c1C1CCN(c2cccc(C)c2)CC1 [P422]
- IC50 (MV-4-11 cells): < 1000 nM

Compound: CNCCN(C)Cc1ccc2[nH]c(N3CCN(C)CC3)nc2c1C1CCN(c2cccc(C)c2)CC1 [P423]
- IC50 (MV-4-11 cells): < 1000 nM

Compound: CNCCN(C)Cc1ccc2[nH]c(N3CCCCC3)nc2c1C1CCN(c2cccc(C)c2)CC1 [P424]
- IC50 (MV-4-11 cells): < 1000 nM

Compound: Cc1cccc(N2CCC(c3c(CN(C)CCN)ccc4[nH]c(N5CCOCC5)nc34)CC2)c1 [P425]
- IC50 (MV-4-11 cells): < 1000 nM

Compound: CCN(CCNC)Cc1ccc2[nH]c(N3CCOCC3)nc2c1C1CCN(c2cccc(C)c2)CC1 [P426]
- IC50 (MV-4-11 cells): < 1000 nM

Compound: CNCCN(C)Cc1ccc2[nH]c(N3CCOCC3)nc2c1C1CCN(c2cccc(C)n2)CC1 [P428]
- IC50 (MV-4-11 cells): < 1000 nM

Compound: CNCCN(C)Cc1ccc2[nH]c(N3CCOCC3)nc2c1C1CCN(c2cncc(F)c2)CC1 [P429]
- IC50 (MV-4-11 cells): < 1000 nM

Compound: CNCCN(C)Cc1ccc2[nH]c(N3CCNCC3)nc2c1C1CCN(c2cccc(C)c2)CC1 [P440]
- IC50 (MV-4-11 cells): < 1000 nM

Compound: CNCCN(C)Cc1ccc2[nH]c(N3CCN(C(=O)CCCC(=O)N4CCN(c5nc6c(C7CCN(c8cccc(C)c8)CC7)c(CN(C)CCNC)ccc6[nH]5)CC4)CC3)nc2c1C1CCN(c2cccc(C)c2)CC1 [P442]
- IC50 (MV-4-11 cells): < 1000 nM

Compound: CNCCN(C)Cc1ccc2[nH]c(C3=CCN(C)CC3)nc2c1C1CCN(c2cccc(C)c2)CC1 [P447]
- IC50 (MV-4-11 cells): < 1000 nM

Compound: CNCCN(C)Cc1ccc2[nH]c(C3CCN(C)CC3)nc2c1C1CCN(c2cccc(C)c2)CC1 [P448]
- IC50 (MV-4-11 cells): < 1000 nM
